Data taken from PubChem BioAssay AID624090 (The Scripps Research Institute Molecular Screening Center, 2012).
Calls of active or inactive are those of the source.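 How the source made its calls: active means AmpC beta-lactamase inhibition with IC50 of 10 µM or lower; inactive means the rest.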

Target: AmpC beta-lactamase (Escherichia coli)
Assay: AmpC inhibition by nonselective VIM-2 inhibitor candidates, late-stage follow-up, selectivity assay for nonselective VIM-2 inhibitor project, biochemical, absorbance, probe candidates and analogs (AID 624090)
Details: recombinant AmpC, nitrocefin hydrolysis

`CN1CCN(NC(=O)CN2C(=O)/C(=C/c3c(Cl)ccc(Cl)c3Cl)SC2=S)CC1` was tested, and the IC50 was > 60 µM (inactive).

`CN1CCN(NC(=O)CN2C(=O)/C(=C/c3c(Cl)cccc3Cl)SC2=S)CC1` was tested, and the IC50 was > 60 µM (inactive).
